PMC5108032, “Discovery of a Quinoline-4-carboxamide Derivative with a Novel Mechanism of Action, Multistage Antimalarial Activity, and Potent in Vivo Efficacy” (Journal of Medicinal Chemistry, 2016)
Several values for one entry are separate records, joined by “and”; a condition that tells them apart may be missing. Identical values can stand only once. One block for each compound: values may come before it.

Assays:
[1] = Oral maximum tolerated dose; conditions: in vivo, 300 mg/kg
P. berghei ANKA strain = experiment: In vivo antimalarial efficacy in the P. berghei mouse model (Peter's test); design: species or system Plasmodium berghei in female NMRI mice; conditions: 4 × 30 mg/kg oral, once daily; mice cured / mice in group; 30 mg/kg
Procedure: Compound 41 was dosed as a bolus solution intravenously at 1 mg free base/kg (dose volume: 5 mL/kg; dose vehicle: 5% DMSO;saline) or by gavage orally as solution at 3 mg free base/kg (dose volume: 10 mL/kg; Dose vehicle: 0.5% w/v hydroxypropylmethylcellulose with 0.4% v/v Tween 80 and 0.5% v/v benzyl alcohol) to male Sprague Dawley rats (n=3/dose route). Blood samples were taken from each rat at 5, 15, 30 min, 1, 2, 4, 6, 8, 24 and 30 h post-dose, mixed with two volumes of distilled water and stored frozen until UPLC/MS/MS analysis.
Pharmacokinetic parameters were derived from the blood concentration time curve for each compound using PKsolutions software v 2.0 (Summit Research Services, USA).
In vivo antimalarial efficacy studies in P. berghei. (Swiss TPH)
In vivo efficacy was conducted as previously described10 with the modification that female NMRI mice (n = 3) were infected with a GFP-transfected P. berghei ANKA strain (donated by A. P. Waters and C. J. Janse, Leiden University, The Netherlands), and parasitaemia determined (96 h after infection) using standard flow cytometry techniques. Compounds 1, 25, 27, 30 and 49 were prepared in 10% DM SO, 40% PEG 400 and 50% water prior to administration orally, once daily for 4 days.
Compounds 40, 41, 43 and 44 were prepared in a non-solubilizing, standard suspension vehicle called HPMC (0.5% [wt/vol] hydroxypropylmethylcellulose, 0.5% [vol/vol] benzyl alcohol, 0.4% [vol/vol] Tween 80, and 0.9% [wt/vol] sodium chloride in water) prior to administration orally, once daily for 4 days. Blood samples were collected on day 4 (96 h after infection) in two volumes water. Animals […]
and then hourly up to 4 h after dosing each day. The animals were selected randomly for each group

[2] = Parallel artificial membrane permeability assay (PAMPA); type: in vitro ADME; conditions: relative to the earlier lead
[3] = Intrinsic clearance in rat hepatocytes; type: in vitro ADME
[4] = Mammalian cell growth inhibition counter-screen (resazurin); type: cell-based, human; conditions: human, MRC-5 cells (normal diploid human fibroblasts)
Procedure: Plasmodium falciparum screening
Assays against P. falciparum were conducted as previously described.1 Cultures of the widely-used malaria reference strain of chloroquine-sensitive Plasmodium falciparum strain 3D7 were maintained in a 5% suspension of human red blood cells (obtained from East of Scotland Blood Transfusion Service, Ninewells Hospital, Dundee) cultured in RPMI 1640 medium (pH 7.3) supplemented with 0.5% Albumax II (Gibco Life Technologies, San Diego, CA), 12 mM sodium bicarbonate, 0.2 mM hypoxanthine and 20 mg/L gentamicin at 37°C, in a humidified atmosphere of 1% O 2, 3% CO2 with a balance of nitrogen. Growth inhibition was quantified using a fluorescence assay utilising the binding of SYBR green to double stranded DNA, which emits a fluorescent signal at 528 nm after excitation at 485nm.2 Mefloquine (potency range 30-60 nM) was used as a drug control to monitor the quality of the assay (Z’ = 0.6 to 0.8, Signal to background >3, where Z’ is a measure of the discrimination between the positive and negative controls on a screen plate). A 96-well [3H]-Hypoxanthine incorporation assay was also developed as a secondary assay in order to validate compounds from the initial screen in an orthogonal platform.3 Compound bioactivity from both assays was expressed as […]
P. falciparum (panel of resistant strains) in vitro assay. (Swiss TPH)
All Plasmodium strains were cultured according to Trager and Jensen and are described at www.beiresources.org (resistant strains: K1, W2, 7G8, TM90C2A, D6 and V1/S, sensitive strain:
NF54). EC50 values were determined in vitro by measuring incorporation of the nucleic acid precursor […]
Mammalian Cell Growth Inhibition assay
A counter-screen against normal diploid human fibroblasts (MRC-5 cell line) was carried out to exclude non-selective, and toxic compounds. The assay was essentially carried out as described previously.4 Cells were plated and incubated overnight to allow them to adhere as monolayers. A working stock of each test compound was transferred to an intermediate 384-well plate and pre-diluted with minimum essential media (MEM). The pre-diluted stocks were then transferred onto the cell monolayers, and the plates were incubated for 68 h. Resazurin, to a final concentration of 50 μM, was added to each well, after which plates were incubated for a further 3 h and measured for fluorescence (λex=528 nm, λem=590 nm)
In vitro Cell Assay Data Analysis.
All data was processed using IDBS ActivityBase® raw data was converted into per cent inhibition through linear regression by setting the high inhibition control as 100% and the no inhibition control as 0%. Quality control criteria for passing plates were as follows: Z’> 0.5, S:B> 3, %CV(no inhibition < 15 . The formula used to calculate Z’ is 1 3× (St D e v _ hi gh + St D e v _ low) . […]
All EC50 Curve fitting was undertaken using XLFit version 4.2 using Model 205 with the following 4 parametric equation: y = A + B A A + ($-&) ,where A=% inhibition at bottom, B=% […]
inhibition at top, C= EC50, D= slope, x= inhibitor concentration and y= % inhibition. […]
reach 100% of inhibition, B was fixed to 100 only when at least 50% of inhibition was reached.
Plasmodium falciparum late stage (IV-V) gametocyte high content imaging assay Plasmodium falciparum NF54-pfs16-LUC-GFP stage IV-V Gametocytes were produced as described previously.5 Compounds were solubilized in DMSO and serially diluted in three concentrations per log standard curves in DM SO. One µl of compound was subsequently diluted in 25µl of water (4% DMSO) and 5µl transferred into the base of 384 well PerkinElmer CellCarrier plates. Forty-five µl of stage IV-V gametocytes (10%P in 0.1%H) were added to the imaging plates which were in turn sealed with a gas permeable membrane and incubated at 37°C, 5% CO 2, 5% O2, 90% N2 and 60% humidity […]
Post incubation, 5µl of MitoTracker® Red CM -H2Xros (MTR) solution (0.66ug/ml) was added to all wells and the plates incubated for a further 16hours. […]

Structure (SMILES): O=C(NCCN1CCCC1)c1cc(NCCCN2CCOCC2)nc2ccc(F)cc12 [Compound 25, 6-Fluoro-2-((3-morpholinopropyl)amino)-N-(2-(pyrrolidin-1-yl)ethyl)quinoline-4-carboxamide]
MTD at 4 days [1]: > 300 mg/kg

Structure (SMILES): O=C(NCCN1CCCC1)c1cc(NCCCCN2CCOCC2)nc2ccc(Cl)cc12 [Compound 27, 6-Chloro-2-((4-morpholinobutyl)amino)-N-(2-(pyrrolidin-1-yl)ethyl)quinoline-4-carboxamide]
cure (P. berghei ANKA strain): one out of three and 1/3

increase in permeability [2]: more than 20 fold | intrinsic clearance in rat hepatocytes (Cli) [3]: 3 mL min^–1 g^–1
Structure (SMILES): O=C(NCCN1CCCC1)c1cc(NCCC2CCOCC2)nc2ccc(Cl)cc12 [Compound 30, 6-Chloro-N-(2-(pyrrolidin-1-yl)ethyl)-2-((2-(tetrahydro-2H-pyran-4-yl)ethyl)amino)quinoline-4-carboxamide]

Structure (SMILES): O=C(NCCN1CCCC1)c1cc(-c2ccc(CN3CCOCC3)cc2Cl)nc2ccc(F)cc12 [Compound 42, 2-(2-Chloro-4-(morpholinomethyl)phenyl)-6-fluoro-N-(2-(pyrrolidin-1-yl)ethyl)quinoline-4-carboxamide]
EC50 at 68 h [4]: > 50 µM
